{
  "source": "patent US7598032B2",
  "about": "“Thermostable DNA polymerases incorporating nucleoside triphosphates labeled with fluorescent dyes” (Roche Molecular Systems, priority 1997, dated 2009)",
  "assay_type_in_all_cases": "biochemical",
  "key": {"[1]": {"test": "screen of transformants for incorporation of [α-32P]Tet-dCTP", "conditions": "in comparison to the wild-type enzyme", "description": "The C-terminal amino acid portion of Taq DNA polymerase encodes the polymerase active site domain (Lawyer et al., 1993, PCR Methods and Applications 2:275-287, Freemont et al., 1986, Proteins: Structure, Function and Genetics 1:66-73, which are incorporated herein by reference). A DNA fragment containing this region was isolated from the full-length Taq gene and mutagenized by PCR amplification in the presence of manganese (Leung et al, 1989, Technique 1(1):11-15). For this example, all restriction enzymes were purchased from New England Biolabs, Beverly Mass. The mutagenized fragments were digested with PstI and BglII and cloned into a Taq expression plasmid, pLK102, which had been digested with PstI and BglII. Plasmid pLK102 is a derivative of pLK101 in which the 900 bp PstI-BglII fragment is replaced by a short PstI-BglII linker. […]\nThe mutagenized Taq expression plasmid of mutant CS1 was digested with HindIII/NheI and the resulting restriction fragment was subcloned into the wild-type gene of pLK101, replacing the unmutagenized HindIII/NheI fragment, to determine which portion of the mutagenized Taq polymerase gene was responsible for the altered phenotype. […] Subsequent subclone analysis determined that the mutation was located in the 265 bp BamHI-NheI fragment."}, "[2]": {"test": "standard PCR reaction with cyanine-labeled dNTPs", "conditions": "compared with the wild-type enzyme", "description": "Although the examples provided herein use dideoxynucleotides labeled with fluorescein family dyes, the use of other unconventional nucleotides and fluorescent dyes is also within the scope of this invention. Other unconventional nucleotides include fluorescently-labled dNTPs, which can be used to label the products of DNA synthesis, and fluorescently-labled rNTPs, which can be used to label the primer extension products. Other dyes include other negatively charged fluorescent dyes, such as BODIPY, which are structurally and chemically similar to fluorescein. Other dyes also include cyanine dyes. Cyanine-labeled dNTPs were added to a standard PCR reaction which included a Taq DNA polymerase with the […] mutation (and a G46D mutation). […] Thus, in this aspect, a method of labeling DNA of the invention uses a native or mutant polymerase of the invention in combination with a nucleotide labeled with either a negatively charged fluorescent dye or a cyanine dye. In one embodiment, the DNA labeling method of the invention comprises: […]"}, "[3]": {"system": "primer annealed to an M13 template", "test": "Extension rate assay", "conditions": "75° C", "experimental": "The extension rate of G46D F667Y Taq and G46D F667Y E681K Taq were determined using an extension rate assay. In this experiment, the enzymes were used to extend a primer annealed to an M13 template in the presence of [α-^33P]dCTP. The extension reactions were denatured and the products analyzed by denaturing agarose gel electrophoresis.\nThe assay was performed as previously described (Lawyer et al., 1989, J. Biol. Chem. 264:6427) including the following modifications. The assay mixture was composed so the final concentration was 50 mM Bicine pH 8.3, 25° C., 2.5 mM MgCl2, 1 mM β-mercaptoethanol, 200 μM each of dATP, dGTP and dTTP (Perkin-Elmer), 100 μM dCTP (Perkin-Elmer) containing [α-^33P]dCTP (New England Nuclear, Boston, Mass.). M13 mp18 (Perkin-Elmer) was annealed to primer DG48, (SEQ ID NO: 11), and the equivalent of 0.085 pmoles of the annealed template was added to the assay mixture for each reaction. Forty-five μl of the assay mixture with template DNA was added to each of fourteen 0.5 ml eppendorf tubes. Each tube was preincubated at 75° C. for at least 30 seconds before the start of the polymerase reaction.\nPolymerization was initiated in six of the fourteen assay tubes with 5 μl of G46D F667Y Taq DNA polymerase (2.5 units) or G46D F667Y E681K Taq DNA polymerase (1.25 units). Both enzymes were prepared as in Example I and the concentration used represents a predetermined excess amount of enzyme for the amount of substrate in the assay. As a control for the level of background, the remaining negative control was initiated with enzyme dilution buffer rather than polymerase. All reaction tubes were immediately vortexed briefly and incubated at 75° C. Two of the six tubes containing G46D F667Y Taq DNA polymerase were incubated 3 minutes, two for 6 minutes and two for 10 minutes. Similarly, two of the tubes started with G46D F667Y E681K Taq DNA polymerase were incubated for 30 seconds, two for 1 minute and two for 2 minutes. The control tubes were incubated for 3 minutes. The reactions were stopped by addition of 10 μl 60 mM EDTA and stored at 0° C.\nFor each reaction, a 25 μl aliquot of the 60 μl reaction was diluted with 1 ml 2 mM EDTA, 50 μg/ml sheared salmon sperm DNA as a carrier. The DNA was precipitated with TCA using standard procedures and collected on GF/C filter discs (Whatman). The amount of incorporated [α-^33P]dCMP was determined for each sample.\nThe remaining 35 μl of each duplicated were combined and the 70 μl sample was ethanol precipitated, dried and resuspended in 50 mM NaOH, 1 mM EDTA. Aliquots were removed from these samples such that an equal number of α-^33P] counts were taken from each. These aliquots were loaded on an 0.9% alkaline agarose gel, electrophoresed, dried and autoradiographed as previously described (Maniatis et al., 1982, In Molecular Cloning: A Laboratory Manual, Cold Spring Harbor Laboratory, Cold Spring Harbor, N.Y.) Bacteriophage lambda DNA cut with restriction enzyme HindIII (BRL) and 5′ end-labeled with [^32P] was used as a molecular weight standard.\nThe length in base pairs of the extension product in each sample was determined by comparison of the migration distance of each sample with the distance migrated by the lambda DNA size standard. The number of base pairs in each product was divided by the number of seconds each extension reaction incubated to give the extension rate as shown below."}, "[4]": {"system": "primer DG48 annealed to M13 mp18 template", "test": "limiting template, primer extension competition assay (ddNTP incorporation assay)", "conditions": "ratio of concentrations for 50% inhibition by Zowie-ddCTP vs. ddCTP", "experimental": "The ability of the enzymes of this invention to efficiently incorporate nucleotides labeled with fluorescein family dyes is measured by ddNTP incorporation assays. One such assay is a primer extension competition assay conducted under conditions of limiting template. In this assay, a primer DG48 (5′-[…]), (SEQ ID NO: 11), bound to M13 mp18 template (Innis et al., 1988, Proc. Natl. Acad. Sci. USA 85:9436) is extended in the presence of [α-^33P]dCTP and excess enzyme with various levels of a fluorescently labeled ddNTP, Zowie-ddCTP. Because the incorporation of a ddCTP residue terminates the extension reaction, the more readily a DNA polymerase incorporates a ddCTP into an extended primer, the less [α-^33P]dCTP can be incorporated. Thus, as the efficiency of fluorescently labeled ddCTP incorporation increases, the extent of inhibition of DNA synthesis is increased. The reactions were also performed with various levels of an unlabeled ddCTP. […]\nThe relative abilities of G46D F667Y Taq, G46D F667Y E681K Taq and F730Y Tma30 DNA polymerases to incorporate a fluorescein dye family-labeled ddCTP were compared by use of a limiting template, primer extension competition assay. […] In this competition assay, because the incorporation of a ddCTP terminates the extension reaction, the more readily the polymerase incorporates a ddCTP into an extended primer, the less [α-^33P]dCTP can be incorporated. […]"}},
  "data": [
    {"substance": "Mutant CS1: mutagenized Taq DNA polymerase clone (plasmid pCS1) carrying the E681K mutation", "values": [
      {"measurement": "ability to incorporate [α-32P]Tet-dCTP", "setting": "[1]", "value": "more efficiently incorporate"}
    ]},
    {"substance": "G46D E681K Taq: thermostable Taq DNA polymerase with G46D and E681K mutations, encoded by plasmid pLK112", "values": [
      {"measurement": "incorporation of cyanine-labeled dNTPs into amplification products", "setting": "[2]", "value": "higher than for the wild-type enzyme"}
    ]},
    {"substance": "G46D F667Y Taq: Taq DNA polymerase having an F667Y mutation and a G46D mutation; known as AmpliTaq, FS [reference compound]", "values": [
      {"measurement": "extension rate, Base Pairs/Sec", "setting": "[3]; Time 3 min.", "value": 12.5, "unit": "Base Pairs/Sec"},
      {"measurement": "extension rate, Base Pairs/Sec", "setting": "[3]; Time 6 min.", "value": 12.2, "unit": "Base Pairs/Sec"},
      {"measurement": "extension rate, Base Pairs/Sec", "setting": "[3]; Time 10 min.", "value": 11.8, "unit": "Base Pairs/Sec"},
      {"measurement": "Zowie-ddCTP/ddCTP (ratio of concentrations for 50% inhibition)", "setting": "[4]", "value": 25}
    ]}
  ]
}
